pIC50: −log10 of the molar value. Counter-ions that a name gives are not always drawn.
Each molecule was assayed on JAK1-dependent STAT6 phosphorylation downstream of IL-13 stimulation in TF-1 human erythroleukemia cells (assay: cells). Settings: TF-1, read-out: IL-13-pSTAT6 IC50.

| SMILES | pIC50 |
| --- | --- |
| CCOC(=O)N1CC=C(c2cccn3nc(Nc4ccc(C(=O)N5CCC6(CCNC6)C5)cc4)nc23)CC1 (centres unmarked) [Example 2-78, ethyl 4-[2-[4-(2,7-diazaspiro[4.4]nonane-2-carbonyl)anilino]-[1,2,4]triazolo[1,5-a]pyridin-8-yl]-3,6-dihydro-2H-pyridine-1-carboxylate] | 6.44 |
| NCC1CCCN1C(=O)c1ccc(Nc2nc3c(C4=CCN(C(=O)CCC(F)(F)F)CC4)cccn3n2)cc1 (centres unmarked) [Example 2-80, 1-[4-[2-[4-[2-(aminomethyl)pyrrolidine-1-carbonyl]anilino]-[1,2,4]triazolo[1,5-a]pyridin-8-yl]-3,6-dihydro-2H-pyridin-1-yl]-4,4,4-trifluoro-butan-1-one] | 7.10 |
| O=C(CCC(F)(F)F)N1CC=C(c2cccn3nc(Nc4ccc(C(=O)N5CC6(CCNCC6)C5)cc4)nc23)CC1 [Example 2-81, 1-[4-[2-[4-(2,7-diazaspiro[3.5]nonane-2-carbonyl)anilino]-[1,2,4]triazolo[1,5-a]pyridin-8-yl]-3,6-dihydro-2H-pyridin-1-yl]-4,4,4-trifluoro-butan-1-one] | 7.22 |
| O=C(CCC(F)(F)F)N1CC=C(c2cccn3nc(Nc4ccc(C(=O)N5CCOC6(CCCNC6)C5)cc4)nc23)CC1 (centres unmarked) [Example 2-82, 4,4,4-trifluoro-1-[4-[2-[4-(1-oxa-4,8-diazaspiro[5.5]undecane-4-carbonyl)anilino]-[1,2,4]triazolo[1,5-a]pyridin-8-yl]-3,6-dihydro-2H-pyridin-1-yl]butan-1-one] | 6.65 |
| O=C(NCC1CCC2(CCNCC2)O1)c1ccc(Nc2nc3c(C4=CCN(C(=O)CCC(F)(F)F)CC4)cccn3n2)cc1 (centres unmarked) [Example 2-83, N-(1-oxa-8-azaspiro[4.5]decan-2-ylmethyl)-4-[[8-[1-(4,4,4-trifluorobutanoyl)-3,6-dihydro-2H-pyridin-4-yl]-[1,2,4]triazolo[1,5-a]pyridin-2-yl]amino]benzamide] | 6.71 |
| O=C(NCC1CCNCC1)c1ccc(Nc2nc3c(C4=CCN(C(=O)CCC(F)(F)F)CC4)cccn3n2)cc1 [Example 2-84, N-(4-piperidylmethyl)-4-[[8-[1-(4,4,4-trifluorobutanoyl)-3,6-dihydro-2H-pyridin-4-yl]-[1,2,4]triazolo[1,5-a]pyridin-2-yl]amino]benzamide] | 7.15 |
| CNC1CCN(C(=O)c2ccc(Nc3nc4c(C5=CCN(C(=O)CCC(F)(F)F)CC5)cccn4n3)cc2)C1 (centres unmarked) [Example 2-85, 4,4,4-trifluoro-1-[4-[2-[4-[3-(methylamino)pyrrolidine-1-carbonyl]anilino]-[1,2,4]triazolo[1,5-a]pyridin-8-yl]-3,6-dihydro-2H-pyridin-1-yl]butan-1-one] | 7.20 |
| O=C(NCCC1CCNCC1)c1ccc(Nc2nc3c(C4=CCN(C(=O)CCC(F)(F)F)CC4)cccn3n2)cc1 [Example 2-86, N-[2-(4-piperidyl)ethyl]-4-[[8-[1-(4,4,4-trifluorobutanoyl)-3,6-dihydro-2H-pyridin-4-yl]-[1,2,4]triazolo[1,5-a]pyridin-2-yl]amino]benzamide] | 6.67 |
| CN1CC2CN(C(=O)c3ccc(Nc4nc5c(C6=CCN(C(=O)CCC(F)(F)F)CC6)cccn5n4)cc3)CC2C1 (centres unmarked) [Example 2-87, 4,4,4-trifluoro-1-[4-[2-[4-(2-methyl-1,3,3a,4,6,6a-hexahydropyrrolo[3,4-c]pyrrole-5-carbonyl)anilino]-[1,2,4]triazolo[1,5-a]pyridin-8-yl]-3,6-dihydro-2H-pyridin-1-yl]butan-1-one] | 8.07 |
| Cc1cc(N(C)C)cc(C2CCCN2C(=O)c2ccc(Nc3nc4c(C5=CCN(C(=O)CCC(F)(F)F)CC5)cccn4n3)cc2)n1 (centres unmarked) [Example 2-92, 1-[4-[2-[4-[2-[4-(dimethylamino)-6-methyl-2-pyridyl]pyrrolidine-1-carbonyl]anilino]-[1,2,4]triazolo[1,5-a]pyridin-8-yl]-3,6-dihydro-2H-pyridin-1-yl]-4,4,4-trifluoro-butan-1-one] | 7.68 |
| CN1CCCC2(CCCN(C(=O)c3ccc(Nc4nc5c(C6=CCN(C(=O)CCC(F)(F)F)CC6)cccn5n4)cc3)C2)C1 (centres unmarked) [Example 2-93, 4,4,4-trifluoro-1-[4-[2-[4-(8-methyl-2,8-diazaspiro[5.5]undecane-2-carbonyl)anilino]-[1,2,4]triazolo[1,5-a]pyridin-8-yl]-3,6-dihydro-2H-pyridin-1-yl]butan-1-one] | 8.33 |
| CCOC(=O)N1CC=C(c2cccn3nc(Nc4ccc(C(=O)OC5CCN(C)CC5)cc4)nc23)CC1 [Example 2-94, ethyl 4-[2-[4-[(1-methyl-4-piperidyl)oxycarbonyl]anilino]-[1,2,4]triazolo[1,5-a]pyridin-8-yl]-3,6-dihydro-2H-pyridine-1-carboxylate] | 7.63 |

Next, values leading:

| pIC50 | SMILES |
| --- | --- |
| 8.37 | O=C(CCC(F)(F)F)N1CC=C(c2cccn3nc(Nc4ccc(C(=O)N5CCN(Cc6ccccn6)CC5)cc4)nc23)CC1 [Example 2-95, 4,4,4-trifluoro-1-[4-[2-[4-[4-(2-pyridylmethyl)piperazine-1-carbonyl]anilino]-[1,2,4]triazolo[1,5-a]pyridin-8-yl]-3,6-dihydro-2H-pyridin-1-yl]butan-1-one] |
| 8.28 | CN(CCc1ccncc1)C(=O)c1ccc(Nc2nc3c(C4=CCN(C(=O)CCC(F)(F)F)CC4)cccn3n2)cc1 [Example 2-96, N-methyl-N-[2-(4-pyridyl)ethyl]-4-[[8-[1-(4,4,4-trifluorobutanoyl)-3,6-dihydro-2H-pyridin-4-yl]-[1,2,4]triazolo[1,5-a]pyridin-2-yl]amino]benzamide] |
| 7.86 | CN(C)C1CCN(C(=O)c2ccc(Nc3nc4c(C5=CCN(C(=O)CCC(F)(F)F)CC5)cccn4n3)cc2)CC1 [Example 2-97, 1-[4-[2-[4-[4-(dimethylamino)piperidine-1-carbonyl]anilino]-[1,2,4]triazolo[1,5-a]pyridin-8-yl]-3,6-dihydro-2H-pyridin-1-yl]-4,4,4-trifluoro-butan-1-one] |
| 7.94 | CN1CCN(C(=O)c2ccc(Nc3nc4c(C5=CCN(C(=O)CCC(F)(F)F)CC5)cccn4n3)cc2)CC1 [Example 2-98, 4,4,4-trifluoro-1-[4-[2-[4-(4-methylpiperazine-1-carbonyl)anilino]-[1,2,4]triazolo[1,5-a]pyridin-8-yl]-3,6-dihydro-2H-pyridin-1-yl]butan-1-one] |
| 7.53 | CN1CCN(CCCNC(=O)c2ccc(Nc3nc4c(C5=CCN(C(=O)CCC(F)(F)F)CC5)cccn4n3)cc2)CC1 [Example 2-99, N-[3-(4-methylpiperazin-1-yl)propyl]-4-[[8-[1-(4,4,4-trifluorobutanoyl)-3,6-dihydro-2H-pyridin-4-yl]-[1,2,4]triazolo[1,5-a]pyridin-2-yl]amino]benzamide] |
| 7.07 | O=C(NCCN1CCC(O)CC1)c1ccc(Nc2nc3c(C4=CCN(C(=O)CCC(F)(F)F)CC4)cccn3n2)cc1 [Example 2-100, N-[2-(4-hydroxy-1-piperidyl)ethyl]-4-[[8-[1-(4,4,4-trifluorobutanoyl)-3,6-dihydro-2H-pyridin-4-yl]-[1,2,4]triazolo[1,5-a]pyridin-2-yl]amino]benzamide] |
| 7.47 | CN(C)CCN1CCN(C(=O)c2ccc(Nc3nc4c(C5=CCN(C(=O)CCC(F)(F)F)CC5)cccn4n3)cc2)CC1 [Example 2-102, 1-[4-[2-[4-[4-[2-(dimethylamino)ethyl]piperazine-1-carbonyl]anilino]-[1,2,4]triazolo[1,5-a]pyridin-8-yl]-3,6-dihydro-2H-pyridin-1-yl]-4,4,4-trifluoro-butan-1-one] |
| 6.84 | O=C(CCC(F)(F)F)N1CC=C(c2cccn3nc(Nc4ccc(C(=O)N5CCCC(c6cc7cccnc7[nH]6)C5)cc4)nc23)CC1 (centres unmarked) [Example 2-103, 4,4,4-trifluoro-1-[4-[2-[4-[3-(1H-pyrrolo[2,3-b]pyridin-2-yl)piperidine-1-carbonyl]anilino]-[1,2,4]triazolo[1,5-a]pyridin-8-yl]-3,6-dihydro-2H-pyridin-1-yl]butan-1-one] |
| 7.22 | CN(Cc1ccccc1-c1cccnc1)C(=O)c1ccc(Nc2nc3c(C4=CCN(C(=O)CCC(F)(F)F)CC4)cccn3n2)cc1 [Example 2-104, N-methyl-N-[[2-(3-pyridyl)phenyl]methyl]-4-[[8-[1-(4,4,4-trifluorobutanoyl)-3,6-dihydro-2H-pyridin-4-yl]-[1,2,4]triazolo[1,5-a]pyridin-2-yl]amino]benzamide] |
| 6.43 | CN1CCC(N(C)C(=O)c2ccc(Nc3nc4c(C5=CCN(C(=O)C6CCOCC6)CC5)cccn4n3)cc2)CC1 [Example 2-105, N-methyl-N-(1-methyl-4-piperidyl)-4-[[8-[1-(tetrahydropyran-4-carbonyl)-3,6-dihydro-2H-pyridin-4-yl]-[1,2,4]triazolo[1,5-a]pyridin-2-yl]amino]benzamide] |
| 5.07 | CNC(=O)N1CC=C(c2cccn3nc(Nc4ccc(C(=O)N(C)C5CCN(C)CC5)cc4)nc23)CC1 [Example 2-106, N-methyl-4-[2-[4-[methyl-(1-methyl-4-piperidyl)carbamoyl]anilino]-[1,2,4]triazolo[1,5-a]pyridin-8-yl]-3,6-dihydro-2H-pyridine-1-carboxamide; hydrochloride] |
| 6.37 | CN1CCC(N(C)C(=O)c2ccc(Nc3nc4c(C5=CCN(C(=O)C6CCOC6)CC5)cccn4n3)cc2)CC1 (centres unmarked) [Example 2-107, N-methyl-N-(1-methyl-4-piperidyl)-4-[[8-[1-(tetrahydrofuran-3-carbonyl)-3,6-dihydro-2H-pyridin-4-yl]-[1,2,4]triazolo[1,5-a]pyridin-2-yl]amino]benzamide; hydrochloride] |
| 8.01 | CN1CCC(N(C)C(=O)c2ccc(Nc3nc4c(C5=CCN(C(=O)OCC(F)(F)F)CC5)cccn4n3)cc2)CC1 [Example 2-108, 2,2,2-trifluoroethyl 4-[2-[4-[methyl-(1-methyl-4-piperidyl)carbamoyl]anilino]-[1,2,4]triazolo[1,5-a]pyridin-8-yl]-3,6-dihydro-2H-pyridine-1-carboxylate] |
| 7.65 | CCOC(=O)N1CC=C(c2cccn3nc(Nc4ccc(C(=O)NCCC5CCCN5C)cc4)nc23)CC1 (centres unmarked) [Example 2-111, ethyl 4-[2-[4-[2-(1-methylpyrrolidin-2-yl)ethylcarbamoyl]anilino]-[1,2,4]triazolo[1,5-a]pyridin-8-yl]-3,6-dihydro-2H-pyridine-1-carboxylate] |

Reference: patent US9873709B2 (priority 2013, dated 2018)
